# Patent publication US11065232B2, “Dihydrotetrabenazine for the treatment of anxiety and psychoses” (ADEPTIO PHARMACEUTICALS LIMITED, priority 2017, dated 2021)
# Tests used:
# Dopamine D2L = Dopamine D2L (Homo sapiens, UniProt P14416); assay: Receptor protein binding studies, Dopamine D2L
# Excerpt: (§1) The four 3,11b trans-dihydrotetrabenazine isomers (+)-α, (−)-α, (+)-β and (−)-β were subjected to specific binding assays to test their ability to bind to the receptors and transporter proteins described below. The results are set out in Table 1
# [1] = biological target: Sigma 2 (h) (agonist radioligand) (Homo sapiens, UniProt Q5BJF2); assay: Receptor protein binding studies, Sigma 2
# Excerpt: as §1
# [2] = biological target: T1, 5-HT1A(h) (agonist radioligand) (Homo sapiens, UniProt P08908); assay: Receptor protein binding studies, 5-HT1A
# T1 sequence (P08908 1-422): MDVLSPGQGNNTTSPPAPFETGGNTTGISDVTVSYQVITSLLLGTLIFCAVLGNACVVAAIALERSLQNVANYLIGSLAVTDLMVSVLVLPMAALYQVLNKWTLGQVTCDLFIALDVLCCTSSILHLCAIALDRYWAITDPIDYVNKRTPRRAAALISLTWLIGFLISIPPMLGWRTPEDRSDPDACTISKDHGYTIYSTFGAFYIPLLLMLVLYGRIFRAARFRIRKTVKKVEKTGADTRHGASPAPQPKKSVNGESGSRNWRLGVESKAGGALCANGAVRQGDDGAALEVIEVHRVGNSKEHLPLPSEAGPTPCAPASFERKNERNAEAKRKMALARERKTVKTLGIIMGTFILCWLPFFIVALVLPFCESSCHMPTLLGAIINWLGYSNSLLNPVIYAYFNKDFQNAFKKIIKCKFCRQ
# Excerpt: as §1
# [3] = biological target: T2, alpha 2A (h) (antagonist radioligand) (Homo sapiens, UniProt P08913); assay: Receptor protein binding studies, alpha 2A
# T2 sequence (P08913 1-465): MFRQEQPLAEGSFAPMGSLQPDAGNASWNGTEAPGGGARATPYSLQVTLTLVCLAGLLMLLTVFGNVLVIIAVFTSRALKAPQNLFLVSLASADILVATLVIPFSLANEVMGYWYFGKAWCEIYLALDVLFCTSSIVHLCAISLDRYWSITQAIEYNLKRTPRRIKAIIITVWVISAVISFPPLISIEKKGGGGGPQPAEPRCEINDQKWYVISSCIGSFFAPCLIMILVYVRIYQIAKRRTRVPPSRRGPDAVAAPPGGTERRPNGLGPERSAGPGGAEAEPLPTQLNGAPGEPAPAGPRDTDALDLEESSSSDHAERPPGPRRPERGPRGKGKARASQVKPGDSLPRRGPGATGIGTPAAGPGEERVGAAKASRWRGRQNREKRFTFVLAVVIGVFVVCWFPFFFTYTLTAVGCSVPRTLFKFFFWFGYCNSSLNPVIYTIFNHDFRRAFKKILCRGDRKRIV
# Excerpt: as §1
# 5-HT5A(h) = 5-HT5A(h) (Homo sapiens, UniProt P47898); assay: Receptor protein binding studies, 5-HT5A
# Excerpt: as §1
# [4] = biological target: T3, D4.4 (h) (antagonist radioligand) (Homo sapiens, UniProt P21917); assay: Receptor protein binding studies, D4.4
# T3 sequence (P21917 1-419): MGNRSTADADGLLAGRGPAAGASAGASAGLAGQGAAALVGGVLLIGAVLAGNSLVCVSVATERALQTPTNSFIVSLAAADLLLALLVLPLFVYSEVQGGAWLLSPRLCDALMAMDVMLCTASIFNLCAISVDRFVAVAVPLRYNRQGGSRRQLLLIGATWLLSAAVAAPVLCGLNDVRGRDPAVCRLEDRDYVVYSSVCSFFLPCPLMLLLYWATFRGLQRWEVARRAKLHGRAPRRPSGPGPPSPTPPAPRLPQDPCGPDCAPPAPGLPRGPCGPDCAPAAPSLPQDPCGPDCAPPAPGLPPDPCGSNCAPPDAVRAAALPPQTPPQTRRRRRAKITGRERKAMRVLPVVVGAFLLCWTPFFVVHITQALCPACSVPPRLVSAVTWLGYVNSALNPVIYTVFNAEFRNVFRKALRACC
# Excerpt: as §1
# [5] = biological target: D2S (h) (antagonist radioligand) (Homo sapiens, UniProt P14416); assay: Receptor protein binding studies, D2S
# Excerpt: as §1
# [6] = biological target: T4, alpha 1D (h) (antagonist radioligand) (Homo sapiens, UniProt P25100); assay: Receptor protein binding studies, alpha 1D
# T4 sequence (P25100 1-572): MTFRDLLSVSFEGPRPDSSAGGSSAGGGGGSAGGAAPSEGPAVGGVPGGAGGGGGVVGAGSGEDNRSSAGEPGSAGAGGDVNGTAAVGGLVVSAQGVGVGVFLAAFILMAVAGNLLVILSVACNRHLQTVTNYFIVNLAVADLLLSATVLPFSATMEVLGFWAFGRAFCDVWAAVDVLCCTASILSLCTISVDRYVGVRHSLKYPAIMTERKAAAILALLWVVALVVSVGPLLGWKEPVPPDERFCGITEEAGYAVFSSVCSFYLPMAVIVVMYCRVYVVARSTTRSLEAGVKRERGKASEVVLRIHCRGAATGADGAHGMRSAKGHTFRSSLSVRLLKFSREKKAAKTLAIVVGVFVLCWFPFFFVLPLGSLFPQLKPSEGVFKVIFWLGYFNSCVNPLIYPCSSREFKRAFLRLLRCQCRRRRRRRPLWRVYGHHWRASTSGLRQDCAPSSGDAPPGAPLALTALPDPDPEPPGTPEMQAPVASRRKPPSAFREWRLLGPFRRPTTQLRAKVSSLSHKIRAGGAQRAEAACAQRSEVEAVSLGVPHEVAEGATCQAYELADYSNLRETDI
# Excerpt: as §1
# [7] = biological target: mu (MOP) (h) (agonist radioligand) (Homo sapiens, UniProt P35372); assay: Receptor protein binding studies, mu (MOP)
# Excerpt: as §1
# [8] = biological target: 5-HT4e (h) (antagonist radioligand) (Homo sapiens, UniProt Q13639); assay: Receptor protein binding studies, 5-HT4e
# Excerpt: as §1
# [9] = biological target: hERG (membrane preparation) (antagonist radioligand) (Homo sapiens, UniProt Q12809); assay: Receptor protein binding studies, hERG
# Excerpt: as §1
# [10] = biological target: D1 (h) (antagonist radioligand) (Homo sapiens, UniProt P21728); assay: Receptor protein binding studies, D1
# Excerpt: as §1
# [11] = CONC 1.0E−05 (unit not given), 10 μM
# [12] = CONC 1.0E−06 (unit not given), 1 μM
# Dopamine D2L, sequence (P14416 whole entry): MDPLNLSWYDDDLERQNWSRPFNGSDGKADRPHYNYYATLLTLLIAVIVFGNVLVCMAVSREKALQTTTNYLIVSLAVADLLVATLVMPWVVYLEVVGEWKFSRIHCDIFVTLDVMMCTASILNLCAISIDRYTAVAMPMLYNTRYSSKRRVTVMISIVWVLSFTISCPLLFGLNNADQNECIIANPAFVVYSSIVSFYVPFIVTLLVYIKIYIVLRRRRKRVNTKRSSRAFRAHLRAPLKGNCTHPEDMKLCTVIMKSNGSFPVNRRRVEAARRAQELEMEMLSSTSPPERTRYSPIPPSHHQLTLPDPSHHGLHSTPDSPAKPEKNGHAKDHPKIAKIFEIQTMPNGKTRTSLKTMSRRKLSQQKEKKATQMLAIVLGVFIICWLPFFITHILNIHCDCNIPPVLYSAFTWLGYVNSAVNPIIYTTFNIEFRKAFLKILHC
# Sigma 2 (h) (agonist radioligand), sequence (Q5BJF2 whole entry): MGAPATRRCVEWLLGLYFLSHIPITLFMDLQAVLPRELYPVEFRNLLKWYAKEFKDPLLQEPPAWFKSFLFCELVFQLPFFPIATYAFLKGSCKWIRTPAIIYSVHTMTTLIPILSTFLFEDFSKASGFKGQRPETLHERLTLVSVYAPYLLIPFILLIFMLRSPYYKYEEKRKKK
# 5-HT4e (h) (antagonist radioligand), sequence (Q13639 1-378 isoform Q13639-5): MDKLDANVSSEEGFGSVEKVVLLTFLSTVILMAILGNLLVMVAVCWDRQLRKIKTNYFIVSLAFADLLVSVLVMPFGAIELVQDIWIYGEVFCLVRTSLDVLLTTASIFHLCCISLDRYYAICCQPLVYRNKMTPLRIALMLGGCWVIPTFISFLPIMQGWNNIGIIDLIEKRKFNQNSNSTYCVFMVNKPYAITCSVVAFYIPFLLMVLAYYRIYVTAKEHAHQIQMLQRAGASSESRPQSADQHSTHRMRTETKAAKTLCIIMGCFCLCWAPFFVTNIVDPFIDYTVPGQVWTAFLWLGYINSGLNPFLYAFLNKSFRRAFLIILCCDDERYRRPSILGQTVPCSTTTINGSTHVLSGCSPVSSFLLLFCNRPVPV
# hERG (membrane preparation) (antagonist radioligand), sequence (Q12809 whole entry): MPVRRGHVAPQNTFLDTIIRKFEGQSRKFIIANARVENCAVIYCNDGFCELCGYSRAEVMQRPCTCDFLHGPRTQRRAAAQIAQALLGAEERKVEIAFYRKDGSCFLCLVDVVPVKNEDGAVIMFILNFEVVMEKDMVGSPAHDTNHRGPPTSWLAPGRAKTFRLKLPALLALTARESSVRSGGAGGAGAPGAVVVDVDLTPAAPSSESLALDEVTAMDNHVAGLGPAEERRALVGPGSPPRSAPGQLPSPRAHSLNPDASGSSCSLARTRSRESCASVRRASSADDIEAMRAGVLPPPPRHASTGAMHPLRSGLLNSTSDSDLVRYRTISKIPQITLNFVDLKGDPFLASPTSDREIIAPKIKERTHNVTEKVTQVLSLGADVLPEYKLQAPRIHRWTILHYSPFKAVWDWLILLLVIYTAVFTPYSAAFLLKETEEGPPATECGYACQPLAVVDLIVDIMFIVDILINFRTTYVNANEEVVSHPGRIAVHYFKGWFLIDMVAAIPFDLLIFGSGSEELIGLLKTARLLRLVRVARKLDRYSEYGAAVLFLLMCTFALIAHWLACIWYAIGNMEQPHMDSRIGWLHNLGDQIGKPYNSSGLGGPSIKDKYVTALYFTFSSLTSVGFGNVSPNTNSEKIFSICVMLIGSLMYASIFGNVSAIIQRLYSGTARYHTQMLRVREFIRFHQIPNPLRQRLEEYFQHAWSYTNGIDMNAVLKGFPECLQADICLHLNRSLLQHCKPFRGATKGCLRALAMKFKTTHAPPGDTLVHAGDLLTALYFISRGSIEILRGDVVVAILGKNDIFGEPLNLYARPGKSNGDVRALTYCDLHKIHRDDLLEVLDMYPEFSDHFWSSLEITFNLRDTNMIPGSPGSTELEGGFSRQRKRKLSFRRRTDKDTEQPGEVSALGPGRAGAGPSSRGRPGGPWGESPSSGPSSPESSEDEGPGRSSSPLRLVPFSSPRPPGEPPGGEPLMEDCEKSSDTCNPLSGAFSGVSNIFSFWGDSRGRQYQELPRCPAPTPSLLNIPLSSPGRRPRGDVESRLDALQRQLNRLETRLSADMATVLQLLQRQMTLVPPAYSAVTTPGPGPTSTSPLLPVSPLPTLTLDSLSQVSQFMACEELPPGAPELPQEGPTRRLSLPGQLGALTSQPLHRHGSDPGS
# D1 (h) (antagonist radioligand), sequence (P21728 whole entry): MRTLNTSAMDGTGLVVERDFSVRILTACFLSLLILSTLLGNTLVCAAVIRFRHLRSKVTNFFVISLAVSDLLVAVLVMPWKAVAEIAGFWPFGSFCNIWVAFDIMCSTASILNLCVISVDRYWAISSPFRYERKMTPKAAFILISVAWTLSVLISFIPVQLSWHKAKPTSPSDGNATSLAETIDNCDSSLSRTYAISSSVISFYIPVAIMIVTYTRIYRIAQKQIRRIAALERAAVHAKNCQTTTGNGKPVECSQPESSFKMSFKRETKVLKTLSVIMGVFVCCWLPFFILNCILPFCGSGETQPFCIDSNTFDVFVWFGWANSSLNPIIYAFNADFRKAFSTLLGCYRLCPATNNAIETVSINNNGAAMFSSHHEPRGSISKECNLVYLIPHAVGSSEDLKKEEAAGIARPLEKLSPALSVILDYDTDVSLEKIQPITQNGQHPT
# 5-HT5A(h), sequence (P47898 whole entry): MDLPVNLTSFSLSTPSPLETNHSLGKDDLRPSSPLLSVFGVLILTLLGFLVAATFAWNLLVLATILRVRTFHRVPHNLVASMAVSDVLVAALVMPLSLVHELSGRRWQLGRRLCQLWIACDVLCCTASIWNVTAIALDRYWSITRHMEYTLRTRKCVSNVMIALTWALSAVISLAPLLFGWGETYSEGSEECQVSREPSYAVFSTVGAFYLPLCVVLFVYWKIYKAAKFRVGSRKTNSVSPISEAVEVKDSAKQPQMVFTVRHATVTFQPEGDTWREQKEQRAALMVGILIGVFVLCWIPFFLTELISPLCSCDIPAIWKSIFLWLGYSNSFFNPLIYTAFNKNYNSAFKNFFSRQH
# mu (MOP) (h) (agonist radioligand), sequence (P35372 whole entry): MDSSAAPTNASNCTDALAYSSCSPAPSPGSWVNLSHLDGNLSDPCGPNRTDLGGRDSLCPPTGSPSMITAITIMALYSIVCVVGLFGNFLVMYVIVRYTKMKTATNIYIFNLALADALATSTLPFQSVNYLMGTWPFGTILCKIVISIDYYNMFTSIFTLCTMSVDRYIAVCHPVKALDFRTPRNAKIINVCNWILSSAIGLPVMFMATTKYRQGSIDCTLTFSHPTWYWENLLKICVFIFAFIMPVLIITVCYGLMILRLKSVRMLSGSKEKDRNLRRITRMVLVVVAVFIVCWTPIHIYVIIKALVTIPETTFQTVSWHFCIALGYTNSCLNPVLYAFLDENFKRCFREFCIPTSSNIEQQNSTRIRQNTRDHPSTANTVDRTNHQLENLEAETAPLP
# D2S (h) (antagonist radioligand), sequence (P14416 1-414 isoform P14416-2): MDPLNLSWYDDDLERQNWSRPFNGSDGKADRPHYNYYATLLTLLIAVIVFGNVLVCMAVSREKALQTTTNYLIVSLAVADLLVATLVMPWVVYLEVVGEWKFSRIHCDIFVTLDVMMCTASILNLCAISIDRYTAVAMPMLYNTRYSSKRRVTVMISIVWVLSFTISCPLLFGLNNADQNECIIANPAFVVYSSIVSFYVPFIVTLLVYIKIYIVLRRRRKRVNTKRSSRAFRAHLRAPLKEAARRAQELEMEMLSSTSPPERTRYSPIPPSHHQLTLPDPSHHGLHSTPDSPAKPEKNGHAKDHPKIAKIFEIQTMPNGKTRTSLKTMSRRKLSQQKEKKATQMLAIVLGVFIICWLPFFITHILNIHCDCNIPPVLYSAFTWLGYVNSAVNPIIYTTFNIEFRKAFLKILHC
Substance,% Inhibition of specific binding (Dopamine D2L; CONC 1.0E−05 (unit not given)) [%],% Inhibition of specific binding (Dopamine D2L; CONC 1.0E−06 (unit not given)) [%],% Inhibition of specific binding ([1]; CONC 1.0E−05 (unit not given)) [%],% Inhibition of specific binding ([1]; CONC 1.0E−06 (unit not given)) [%],% Inhibition of specific binding ([2]; CONC 1.0E−05 (unit not given)) [%],% Inhibition of specific binding ([2]; CONC 1.0E−06 (unit not given)) [%],% Inhibition of specific binding ([3]; CONC 1.0E−05 (unit not given)) [%],% Inhibition of specific binding ([3]; CONC 1.0E−06 (unit not given)) [%],% Inhibition of specific binding (5-HT5A(h); CONC 1.0E−05 (unit not given)) [%],% Inhibition of specific binding (5-HT5A(h); CONC 1.0E−06 (unit not given)) [%],activity at the dopamine D4 receptor (in words) [4],"% Inhibition of specific binding [4, 11] [%]","% Inhibition of specific binding [4, 12] [%]",% Inhibition of specific binding ([5]; CONC 1.0E−05 (unit not given)) [%],% Inhibition of specific binding ([5]; CONC 1.0E−06 (unit not given)) [%],% Inhibition of specific binding ([6]; CONC 1.0E−05 (unit not given)) [%],% Inhibition of specific binding ([6]; CONC 1.0E−06 (unit not given)) [%],% Inhibition of specific binding ([7]; CONC 1.0E−05 (unit not given)) [%],% Inhibition of specific binding ([7]; CONC 1.0E−06 (unit not given)) [%],% Inhibition of specific binding ([8]; CONC 1.0E−05 (unit not given)) [%],other results
(−)-α-dihydrotetrabenazine [(−)-Alpha],68,27,85,52,96,80,65,30,−6,−24,significantly less active,65,19,73,22,25,13,2,11,26,% Inhibition of specific binding ([8]; CONC 1.0E−06 (unit not given)): 4%; % Inhibition of specific binding ([9]; CONC 1.0E−05 (unit not given)): 19%; % Inhibition of specific binding ([9]; CONC 1.0E−06 (unit not given)): 5%; % Inhibition of specific binding ([10]; CONC 1.0E−05 (unit not given)): 45%; % Inhibition of specific binding ([10]; CONC 1.0E−06 (unit not given)): 5%
(+)-α-dihydrotetrabenazine [(+)-Alpha],14,10,70,34,83,38,7,5,−2,−26,essentially inactive,−7,−3,7,−1,−10,15,5,0,40,% Inhibition of specific binding ([8]; CONC 1.0E−06 (unit not given)): 2%; % Inhibition of specific binding ([9]; CONC 1.0E−05 (unit not given)): 33%; % Inhibition of specific binding ([9]; CONC 1.0E−06 (unit not given)): 2%; % Inhibition of specific binding ([10]; CONC 1.0E−05 (unit not given)): −2%; % Inhibition of specific binding ([10]; CONC 1.0E−06 (unit not given)): 0%
(+)-β-dihydrotetrabenazine [(+)-Beta],18,1,85,41,64,20,11,−1,−13,−23,essentially inactive,2,−3,7,−8,20,18,2,7,19,% Inhibition of specific binding ([8]; CONC 1.0E−06 (unit not given)): −4%; % Inhibition of specific binding ([9]; CONC 1.0E−05 (unit not given)): 8%; % Inhibition of specific binding ([9]; CONC 1.0E−06 (unit not given)): 3%; % Inhibition of specific binding ([10]; CONC 1.0E−05 (unit not given)): 8%; % Inhibition of specific binding ([10]; CONC 1.0E−06 (unit not given)): 0%
